Laboratory results reported in patent publication US10758534B2 (Vertex Pharmaceuticals Incorporated, priority 2014, dated 2020).

target: T1, F508del (Homo sapiens, UniProt P13569, DEL508-508); test: Protocol 1: membrane potential optical assay (FLIPR III, voltage sensing dye), identification of potentiator compounds; assay type: cell-based; conditions: Table 3, compounds of Table 1
T1 construct: expressed in transfected cells
Method in brief: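 NIH 3T3 fibroblasts stably expressing F508del were cultured at 27° C for 24 hrs for temperature correction, then treated with compounds or DMSO and loaded with a voltage-sensing redistribution dye. Forskolin added with a Cl⁻ gradient activated the channel; membrane-potential fluorescence on FLIPR III reported increased gating.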

T1 sequence (P13569 with tags, fused parts or gaps DEL508-508): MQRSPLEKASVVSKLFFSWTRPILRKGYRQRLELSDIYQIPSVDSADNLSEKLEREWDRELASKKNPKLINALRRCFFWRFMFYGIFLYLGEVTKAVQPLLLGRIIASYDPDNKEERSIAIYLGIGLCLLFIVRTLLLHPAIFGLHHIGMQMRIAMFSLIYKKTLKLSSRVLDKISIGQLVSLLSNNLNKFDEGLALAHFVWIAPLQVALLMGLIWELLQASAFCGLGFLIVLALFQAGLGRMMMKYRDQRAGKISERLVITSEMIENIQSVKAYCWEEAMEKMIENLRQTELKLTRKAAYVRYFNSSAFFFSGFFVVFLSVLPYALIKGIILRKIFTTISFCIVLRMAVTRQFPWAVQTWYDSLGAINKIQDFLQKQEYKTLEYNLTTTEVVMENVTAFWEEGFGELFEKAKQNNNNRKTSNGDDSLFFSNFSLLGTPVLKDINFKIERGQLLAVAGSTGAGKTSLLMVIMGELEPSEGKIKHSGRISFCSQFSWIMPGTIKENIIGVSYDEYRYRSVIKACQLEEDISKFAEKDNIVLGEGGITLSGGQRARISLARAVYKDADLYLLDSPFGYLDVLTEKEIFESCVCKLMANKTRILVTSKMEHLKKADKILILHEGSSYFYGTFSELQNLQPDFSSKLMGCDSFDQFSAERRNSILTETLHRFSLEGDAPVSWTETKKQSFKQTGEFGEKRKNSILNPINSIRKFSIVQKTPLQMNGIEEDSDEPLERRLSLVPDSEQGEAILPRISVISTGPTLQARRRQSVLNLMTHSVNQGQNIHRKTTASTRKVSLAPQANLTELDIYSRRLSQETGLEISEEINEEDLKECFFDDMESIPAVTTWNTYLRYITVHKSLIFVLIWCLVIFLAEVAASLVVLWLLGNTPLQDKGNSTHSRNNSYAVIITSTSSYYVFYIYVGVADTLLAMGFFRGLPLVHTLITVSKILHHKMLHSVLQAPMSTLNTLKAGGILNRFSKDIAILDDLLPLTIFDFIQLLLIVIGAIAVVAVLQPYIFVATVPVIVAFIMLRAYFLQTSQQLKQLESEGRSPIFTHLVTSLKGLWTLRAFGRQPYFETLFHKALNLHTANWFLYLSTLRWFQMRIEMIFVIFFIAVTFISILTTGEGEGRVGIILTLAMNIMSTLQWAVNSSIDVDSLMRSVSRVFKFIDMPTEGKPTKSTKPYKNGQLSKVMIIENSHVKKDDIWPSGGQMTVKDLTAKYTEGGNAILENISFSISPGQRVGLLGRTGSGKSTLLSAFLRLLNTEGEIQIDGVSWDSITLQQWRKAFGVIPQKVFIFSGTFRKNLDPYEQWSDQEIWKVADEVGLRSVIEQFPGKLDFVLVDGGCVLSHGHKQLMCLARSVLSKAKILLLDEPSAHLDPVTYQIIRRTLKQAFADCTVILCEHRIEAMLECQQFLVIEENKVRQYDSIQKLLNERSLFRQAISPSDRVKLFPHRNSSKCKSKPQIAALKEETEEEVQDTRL

Compound | EC30
CC(C)Oc1ccc(-c2ccc(C(=O)NS(=O)(=O)c3cccc(N)n3)c(N3CCCC(C4CC4)C3)n2)cn1 (stereo not drawn) [Compound 1132, N-[(6-amino-2-pyridyl)sulfonyl]-2-(3-cyclopropyl-1-piperidyl)-6-(6-isopropoxy-3-pyridyl)pyridine-3-carboxamide] | +++ (“+++” means <3 uM)
CC(C)CC(C)Oc1cccc(-c2ccc(C(=O)NS(=O)(=O)c3cccc(N)n3)c(N3CCCC3(C)C)n2)n1 (stereo not drawn) [Compound 846, N-[(6-amino-2-pyridyl)sulfonyl]-6-[6-(1,3-dimethylbutoxy)-2-pyridyl]-2-(2,2-dimethylpyrrolidin-1-yl)pyridine-3-carboxamide] | +++ (“+++” means <3 uM)
CCOc1cccc2c1CN(Cc1c(C)cc(C)cc1C)C2(C)C(=O)NS(=O)(=O)c1ccccc1O (stereo not drawn) [Compound 1509, 4-ethoxy-N-(2-hydroxyphenyl)sulfonyl-1-methyl-2-[(2,4,6-trimethylphenyl)methyl]isoindoline-1-carboxamide] | +++ (“+++” means <3 uM)
Cc1ccc(-c2nc(C(C)(C)C)ccc2C(=O)NS(=O)(=O)c2cccc(O)c2)cc1 [Compound 1265, 6-tert-butyl-N-(3-hydroxyphenyl)sulfonyl-2-(p-tolyl)pyridine-3-carboxamide] | ++ (“++” means between 3 uM and 10 uM)
CC(C)Oc1ccc(-c2ccc(C(=O)NS(=O)(=O)c3cccc(N)n3)c(N3CCC[C@H](c4ccccc4)C3)n2)cn1 [Compound 1209] | +++ (“+++” means <3 uM)
CC(C)COc1cc(F)cc(-c2ccc(C(=O)NS(=O)(=O)c3cccc(N)n3)c(OCCc3ccccn3)n2)c1 [Compound 1625, N-[(6-amino-2-pyridyl)sulfonyl]-6-(3-fluoro-5-isobutoxy-phenyl)-2-[2-(2-pyridyl)ethoxy]pyridine-3-carboxamide] | ++ (“++” means between 3 uM and 10 uM)
CC(C)COc1cc(F)cc(-c2ccc(C(=O)NS(=O)(=O)c3cccc(N)n3)c(N3CCC4(CC4)C3)n2)c1 [Compound 1061, N-[(6-amino-2-pyridyl)sulfonyl]-2-(6-azaspiro[2.4]heptan-6-yl)-6-(3-fluoro-5-isobutoxy-phenyl)pyridine-3-carboxamide] | +++ (“+++” means <3 uM)
CC(C)Oc1ccc(-c2ccc(C(=O)NS(=O)(=O)c3cccc(N)n3)c(N3CCCC(C(F)(F)F)C3)n2)cn1 (stereo not drawn) [Compound 1274, N-[(6-amino-2-pyridyl)sulfonyl]-6-(6-isopropoxy-3-pyridyl)-2-[3-(trifluoromethyl)-1-piperidyl]pyridine-3-carboxamide] | +++ (“+++” means <3 uM)
COC1CCCCC1Oc1nc(-c2cc(F)cc(OCC(C)C)c2)ccc1C(=O)NS(=O)(=O)c1cccc(N)n1 (stereo not drawn) [Compound 1622, N-[(6-amino-2-pyridyl)sulfonyl]-6-(3-fluoro-5-isobutoxy-phenyl)-2-(2-methoxycyclohexoxy)pyridine-3-carboxamide] | +++ (“+++” means <3 uM)
CC(C)COc1cc(F)cc(-c2ccc(C(=O)NS(=O)(=O)c3ccn[nH]3)c(N3CCC4(CCC4)CC3)n2)c1 [Compound 944, 2-(7-azaspiro[3.5]nonan-7-yl)-6-(3-fluoro-5-isobutoxy-phenyl)-N-(1H-pyrazol-5-ylsulfonyl)pyridine-3-carboxamide] | +++ (“+++” means <3 uM)
Cc1cc(C)c(Oc2nc(C)c(C)cc2C(=O)NS(=O)(=O)c2cccc(N)n2)c(C)c1 [Compound 841, N-[(6-amino-2-pyridyl)sulfonyl]-5,6-dimethyl-2-(2,4,6-trimethylphenoxy)pyridine-3-carboxamide] | +++ (“+++” means <3 uM)
C[C@@H]1CN(c2nc(Cl)ccc2C(=O)NS(=O)(=O)c2cccc(N)n2)C(C)(C)C1 [Compound 852, N-[(6-amino-2-pyridyl)sulfonyl]-6-chloro-2-[(4S)-2,2,4-trimethylpyrrolidin-1-yl]pyridine-3-carboxamide] | ++ (“++” means between 3 uM and 10 uM)
Cc1ccc(-c2nc(C(C)(C)C)ccc2C(=O)NS(=O)(=O)c2cccc(N)c2)c(F)c1 [Compound 1331, N-(3-aminophenyl)sulfonyl-6-tert-butyl-2-(2-fluoro-4-methyl-phenyl)pyridine-3-carboxamide] | + (“+” means greater than 10 uM)
CC(C)COc1cc(F)cc(-c2ccc(C(=O)NS(=O)(=O)N3CCC(O)C3)c(N3C[C@@H](C)CC3(C)C)n2)c1 (stereo partly drawn) [Compound 1648, 6-(3-fluoro-5-isobutoxy-phenyl)-N-(3-hydroxypyrrolidin-1-yl)sulfonyl-2-[(4S)-2,2,4-trimethylpyrrolidin-1-yl]pyridine-3-carboxamide] | +++ (“+++” means <3 uM)
CCOc1cc(F)cc(-c2ccc(C(=O)NS(=O)(=O)c3ccc[nH]c3=O)c(N3[C@H](C)CC[C@@H]3C)n2)c1 [Compound 1096, 2-[(2R,5S)-2,5-dimethylpyrrolidin-1-yl]-6-(3-ethoxy-5-fluoro-phenyl)-N-[(2-oxo-1H-pyridin-3-yl)sulfonyl]pyridine-3-carboxamide] | ++ (“++” means between 3 uM and 10 uM)
CCOc1cc(C)cc(-c2ccc(C(=O)NS(=O)(=O)c3cccnc3N)c(Oc3c(C)cc(C)cc3C)n2)n1 [Compound 1795, N-[(2-amino-3-pyridyl)sulfonyl]-6-(6-ethoxy-4-methyl-2-pyridyl)-2-(2,4,6-trimethylphenoxy)pyridine-3-carboxamide] | +++ (“+++” means <3 uM)
CCOc1cc(-c2ccc(C(=O)NS(=O)(=O)c3cccc(N)n3)c(Oc3c(C)cc(C)cc3C)n2)ccc1OC [Compound 860, N-[(6-amino-2-pyridyl)sulfonyl]-6-(3-ethoxy-4-methoxy-phenyl)-2-(2,4,6-trimethylphenoxy)pyridine-3-carboxamide] | ++ (“++” means between 3 uM and 10 uM)
CC1CN(c2nc(C(C)(C)C)c(C3=COCCC3)cc2C(=O)NS(=O)(=O)c2cccc(N)n2)C(C)(C)C1 (stereo not drawn) [Compound 1487, N-[(6-amino-2-pyridyl)sulfonyl]-6-tert-butyl-5-(3,4-dihydro-2H-pyran-5-yl)-2-(2,2,4-trimethylpyrrolidin-1-yl)pyridine-3-carboxamide] | +++ (“+++” means <3 uM)
CC(C)COc1cc(F)cc(-c2ccc(C(=O)NS(=O)(=O)c3cccc(N)n3)c(N3CC(C)CCC3C)n2)c1 (single isomer, unassigned) [Compound 1864, N-[(6-amino-2-pyridyl)sulfonyl]-2-(2,5-dimethyl-1-piperidyl)-6-(3-fluoro-5-isobutoxy-phenyl)pyridine-3-carboxamide] | +++ (“+++” means <3 uM)
CC(C)COc1cc(F)cc(-c2ccc(C(=O)NS(=O)(=O)c3cccc(N)n3)c(N3CC(C)CC3(C)C)c2F)c1 (stereo not drawn) [Compound 1497, N-[(6-amino-2-pyridyl)sulfonyl]-3-fluoro-4-(3-fluoro-5-isobutoxy-phenyl)-2-(2,2,4-trimethylpyrrolidin-1-yl)benzamide] | +++ (“+++” means <3 uM)
CC(C)Oc1ccc(C(=O)NS(=O)(=O)c2cccc(N)n2)c(N2C[C@@H](C)CC2(C)C)n1 [Compound 1573, N-[(6-amino-2-pyridyl)sulfonyl]-6-isopropoxy-2-[(4S)-2,2,4-trimethylpyrrolidin-1-yl]pyridine-3-carboxamide] | +++ (“+++” means <3 uM)
CC(C)COc1cc(F)cc(-c2ccc(C(=O)NS(=O)(=O)c3cccc(O)c3)c(N3CCC(C)(C)CC3)n2)c1 [Compound 1309, 2-(4,4-dimethyl-1-piperidyl)-6-(3-fluoro-5-isobutoxy-phenyl)-N-(3-hydroxyphenyl)sulfonyl-pyridine-3-carboxamide] | +++ (“+++” means <3 uM)
CC(C)COc1cc(F)cc(-c2ccc(C(=O)NS(=O)(=O)c3cccc(N)n3)c(OC(C)(C)Cc3ccccc3)n2)c1 [Compound 1365, N-[(6-amino-2-pyridyl)sulfonyl]-2-(1,1-dimethyl-2-phenyl-ethoxy)-6-(3-fluoro-5-isobutoxy-phenyl)pyridine-3-carboxamide] | +++ (“+++” means <3 uM)
CCc1ccc(-c2ccc(C(=O)NS(=O)(=O)c3ccc[nH]c3=O)c(Oc3c(C)cc(C)cc3C)n2)cc1 [Compound 831, 6-(4-ethylphenyl)-N-[(2-oxo-1H-pyridin-3-yl)sulfonyl]-2-(2,4,6-trimethylphenoxy)pyridine-3-carboxamide] | +++ (“+++” means <3 uM)
COc1ccc(-c2ccc(C(=O)NS(=O)(=O)c3cccnc3N)c(N3C[C@@H](C)CC3(C)C)n2)c(F)c1 [Compound 1818, N-[(2-amino-3-pyridyl)sulfonyl]-6-(2-fluoro-4-methoxy-phenyl)-2-[(4S)-2,2,4-trimethylpyrrolidin-1-yl]pyridine-3-carboxamide] | +++ (“+++” means <3 uM)
Cc1nc(N(C)CC(C)C)ccc1-c1ccc(C(=O)NS(=O)(=O)c2cccc(N)n2)c(N2CC(C)CC2(C)C)n1 (stereo not drawn) [Compound 827, N-[(6-amino-2-pyridyl)sulfonyl]-6-[6-[isobutyl(methyl)amino]-2-methyl-3-pyridyl]-2-(2,2,4-trimethylpyrrolidin-1-yl)pyridine-3-carboxamide] | +++ (“+++” means <3 uM)
Cc1cc(C)c(Oc2nc(C3CC4CCC3(C)C4(C)C)ccc2C(=O)NS(=O)(=O)c2cccc(N)n2)c(C)c1 (stereo not drawn) [Compound 1650, N-[(6-amino-2-pyridyl)sulfonyl]-6-(1,7,7-trimethylnorbornan-2-yl)-2-(2,4,6-trimethylphenoxy)pyridine-3-carboxamide] | +++ (“+++” means <3 uM)
CC(C)COc1cc(F)cc(-c2ccc(C(=O)NS(=O)(=O)c3cccc(N)n3)c(C3CC(C)(C)CC3(C)C)n2)c1 (stereo not drawn) [Compound 1552] | +++ (“+++” means <3 uM)
CCOC1CCN(c2nc(C(C)(C)C)ccc2C(=O)NS(=O)(=O)c2cccc(N)n2)CC1 [Compound 1200, N-[(6-amino-2-pyridyl)sulfonyl]-6-tert-butyl-2-(4-ethoxy-1-piperidyl)pyridine-3-carboxamide] | ++ (“++” means between 3 uM and 10 uM)
CC(C)COc1cc(F)cc(-c2ccc(C(=O)NS(=O)(=O)c3cccc(N)n3)c(N3CCCC4(CC4)C3)n2)c1 [Compound 953, N-[(6-amino-2-pyridyl)sulfonyl]-2-(7-azaspiro[2.5]octan-7-yl)-6-(3-fluoro-5-isobutoxy-phenyl)pyridine-3-carboxamide] | +++ (“+++” means <3 uM)
